Several values for one entry are separate records, joined by “and”; a condition that tells them apart may be missing. Identical values can stand only once.
Biological target: Carboxylic ester hydrolase (Equus caballus, UniProt Q9N1N9)
Test: Inhibition Assay
Conditions: 40 °C
Description: Butyrylcholinesterase type IV-S, lyophilized from horse serum (sigma Chemical Co.) was used without further purification. HPLC analyses (Thermo Separation Products, Spectra SYSTEM 2000) were performed on an RP-18 column at 40 C.

Carboxylic ester hydrolase, sequence (Q9N1N9 whole entry): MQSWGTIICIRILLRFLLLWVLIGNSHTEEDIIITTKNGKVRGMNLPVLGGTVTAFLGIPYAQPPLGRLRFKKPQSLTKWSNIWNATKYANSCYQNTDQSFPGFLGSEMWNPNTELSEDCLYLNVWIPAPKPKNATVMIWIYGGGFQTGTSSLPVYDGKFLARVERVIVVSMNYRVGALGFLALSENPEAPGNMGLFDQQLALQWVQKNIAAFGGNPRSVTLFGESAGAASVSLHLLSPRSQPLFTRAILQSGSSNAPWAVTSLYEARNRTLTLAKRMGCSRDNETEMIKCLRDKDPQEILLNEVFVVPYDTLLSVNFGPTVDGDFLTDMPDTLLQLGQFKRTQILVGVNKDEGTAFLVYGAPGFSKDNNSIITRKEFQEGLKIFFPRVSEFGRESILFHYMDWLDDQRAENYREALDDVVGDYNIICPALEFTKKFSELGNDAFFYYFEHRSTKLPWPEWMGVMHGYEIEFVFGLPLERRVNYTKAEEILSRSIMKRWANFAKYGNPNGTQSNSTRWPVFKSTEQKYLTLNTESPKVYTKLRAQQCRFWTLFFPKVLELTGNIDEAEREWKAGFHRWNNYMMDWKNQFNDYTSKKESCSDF

| Structure (SMILES) | Ki |
| --- | --- |
| O=C(NC1C[N+]2(Cc3ccccc3)CCC1CC2)c1ccccc1 [(S)-N-Benzyl-3-benzamidoquinuclidinium bromide, 12] | 25.9 µM and 3.7 µM |
| CCCC(=O)NC1C[N+]2(Cc3ccccc3)CCC1CC2 [(S)-N-Benzyl-3-butanamidoquinuclidinium bromide, 9] | 160 µM and 242 µM |

— BindingDB's records for doi:10.1016/j.bioorg.2006.01.004 (University of Zagreb, 2006)
